# Experimental data reported in patent US20230096766A1, “AMINO ACID HAVING FUNCTIONAL GROUP CAPABLE OF INTERMOLECULAR HYDROGEN BONDING, PEPTIDE COMPOUND CONTAINING SAME AND METHOD FOR PRODUCTION THEREOF” (Chugai Seiyaku Kabushiki Kaisha, priority 2018, published 2023).
# *1 amine or outer side, *2 acyl side, *3 side chain or, on linkers, in order; H or OH if unused. Where a SMILES comes first, the peptide text is derived from it. Bridges are numbered along the chain shown (N, C = ends). [ ]: non-standard residue; d: D form. The star is where a group is joined. ξ: configuration not given here. Phe(3-OMe,4-CONHMs) = COc1cc(C[C@H](N)C(=O)O)ccc1C(=O)NS(C)(=O)=O; Phe(3-CONHMe,4-OMe) = CNC(=O)c1cc(C[C@H](N)C(=O)O)ccc1OC; NMeAbu(4-morpholino) = CN[C@@H](CCN1CCOCC1)C(=O)O; Phe(4-COOH) = N[C@@H](Cc1ccc(C(=O)O)cc1)C(=O)O; NMePhe(3-Cl) = CN[C@@H](Cc1cccc(Cl)c1)C(=O)O; NMehPhe = CN[C@@H](CCc1ccccc1)C(=O)O; X7 = O=C(C[C@H](COCCO)N[*:1])[*:2]; NMeF = CN[C@@H](Cc1ccccc1)C(=O)O; NMeGABA = CN(CCCC(=O)[*:2])[*:1]; NMeI = CC[C@H](C)[C@H](NC)C(=O)O; Butyl(3-Me,3-OH) = CC(C)(O)CC*; NMeL = CN[C@@H](CC(C)C)C(=O)O; Butyl(3R-OH) = C[C@@H](O)CC*; Propyl(2R-OH) = C[C@@H](O)C*; Butyl(3S-OH) = C[C@H](O)CC*; NMeV = CN[C@H](C(=O)O)C(C)C; NMeAbu = CC[C@H](NC)C(=O)O; NMeA = CN[C@@H](C)C(=O)O; Piperidide = C1CCN(*)CC1; dNMeA = CN[C@H](C)C(=O)O; X8 = C1COC[C@@H](C*)N1; Me2NCH2CH2 = CN(C)CC*; NBuGly = CCCCNCC(=O)O; NPrGly = CCCNCC(=O)O; Propyl(3-OH) = OCCC*; ξS = NC(CO)C(=O)O; N(OH)Me = CN(O)*; Sar = CNCC(=O)O; tBu = CC(C)(C)*
# Experiment: in vitro
# Settings: human, Caco-2, Caco-2
row,SMILES,Papp
1,CCCCN1CC(=O)N(C)[C@@H](CCN2CCOCC2)C(=O)N[C@H](C(=O)N2CCCCC2)CC(=O)N(C)[C@@H](C)C(=O)N[C@@H](CC(C)C)C(=O)N(C)[C@@H](CC(C)C)C(=O)N(C)[C@@H](Cc2ccccc2)C(=O)N[C@@H](CC(C)C)C(=O)N(C)[C@@H](Cc2ccccc2)C(=O)N(C)[C@@H](CC(C)C)C(=O)N[C@@H]([C@@H](C)O)C1=O [pd454] ([NMeA]L[NMeL][NMeF]L[NMeF][NMeL]T[NBuGly][NMeAbu(4-morpholino)]D-Piperidide; lactam N-11),12 nm/s
2,CCCN1CC(=O)N(C)[C@@H](C(C)C)C(=O)N[C@H](C(=O)N2CCCCC2)CC(=O)N(C)[C@@H](C)C(=O)N[C@@H](CC(C)C)C(=O)N(C)[C@@H](CC(C)C)C(=O)N(C)[C@@H](Cc2ccccc2)C(=O)NC(COCCN(C)C)C(=O)N(C)[C@@H](Cc2ccccc2)C(=O)N(C)[C@@H](CC(C)C)C(=O)N[C@@H]([C@@H](C)O)C1=O (stereo partly drawn) [pd57] ([NMeA]L[NMeL][NMeF][ξS](Me2NCH2CH2)[NMeF][NMeL]T[NPrGly][NMeV]D-Piperidide; lactam N-11),1.2 nm/s

# Same assay, conditions: human, Caco-2, Caco-2 (cm/sec)
row,SMILES,Papp
1,CCCCN1CC(=O)N(C)[C@@H](CC(C)C)C(=O)N[C@@H](COC(C)(C)C)C(=O)N(C)[C@@H]([C@@H](C)CC)C(=O)N(C)[C@@H](CC(C)C)C(=O)N[C@H](C(=O)N2CCCCC2)CC(=O)N[C@H](C)C(=O)N(C)[C@@H](Cc2ccccc2)C(=O)N[C@@H](Cc2ccc(C(=O)N(C)O)cc2)C(=O)N(C)[C@@H](CC(C)C)C(=O)N[C@@H]([C@@H](C)O)C1=O [AP250] ([dA][NMeF][Phe(4-COOH)](N(OH)Me)[NMeL]T[NBuGly][NMeL]S(tBu)[NMeI][NMeL]D-Piperidide; lactam N-11),1.2 nm/s
2,"CCCN1CC(=O)N(C)[C@@H](Cc2ccccc2)C(=O)N[C@@H]([C@@H](C)CC)C(=O)N(C)[C@@H](CC(C)C)C(=O)N[C@@H]([C@@H](C)O)C(=O)N(C)CC(=O)N(C)[C@@H](Cc2ccccc2)C(=O)N(C)[C@@H](CC(C)C)C(=O)N[C@@H](COCCC(C)(C)O)C(=O)N(C)[C@@H](CC(C)C)C(=O)N[C@H](C(=O)N2CCCCC2)CC1=O [AP59] ([NPrGly][NMeF]I[NMeL]T[Sar][NMeF][NMeL]S(Butyl(3-Me,3-OH))[NMeL]D-Piperidide; lactam N-11)",7.8 nm/s
3,CC(C)C[C@@H]1NC(=O)[C@H](Cc2ccccc2)N(C)C(=O)[C@@H](CC(C)C)NC(=O)C[C@@H](C(=O)N2CCCCC2)NC(=O)[C@H](CC(C)C)N(C)C(=O)[C@H](Cc2ccccc2)N(C)C(=O)[C@H](COC(C)(C)C)NC(=O)[C@H](CC(C)C)N(C)C(=O)CN(C)C(=O)[C@H](COC[C@@H](C)O)NC(=O)[C@H](CC(C)C)N(C)C1=O [AP81] ([dL][NMeF]L[NMeL]S(Propyl(2R-OH))[Sar][NMeL]S(tBu)[NMeF][NMeL]D-Piperidide; lactam N-11),6.9 nm/s
4,CCCCN1CC(=O)N(C)[C@@H](CC)C(=O)N[C@@H](COC[C@@H]2COCCN2)C(=O)N(C)[C@@H](Cc2ccccc2)C(=O)N(C)[C@@H](CC)C(=O)N[C@H](C(=O)N2CCCCC2)CC(=O)N[C@H](CC(C)C)C(=O)N(C)[C@@H](CC(C)C)C(=O)N[C@@H]([C@@H](C)CC)C(=O)N(C)[C@@H](CC(C)C)C(=O)N[C@@H]([C@@H](C)O)C1=O [AP240] ([dL][NMeL]I[NMeL]T[NBuGly][NMeAbu]S(X8)[NMeF][NMeAbu]D-Piperidide; lactam N-11),0.8 nm/s
5,CC(C)C[C@@H]1NC(=O)[C@H](Cc2ccccc2)N(C)C(=O)[C@H](CC(C)C)N(C)C(=O)[C@@H](C)N(C)C(=O)C[C@@H](C(=O)N2CCCCC2)NC(=O)[C@H](CC(C)C)N(C)C(=O)[C@H](Cc2ccccc2)N(C)C(=O)[C@H]([C@@H](C)O)NC(=O)[C@H](Cc2ccccc2)N(C)C1=O [pd223] ([dNMeA][NMeL][NMeF]L[NMeF]T[NMeF][NMeL]D-Piperidide; lactam N-9),11 nm/s
6,CCCCN1CC(=O)N(C)[C@@H](C(C)C)C(=O)N[C@@H](COC(C)(C)C)C(=O)N(C)[C@@H](Cc2ccccc2)C(=O)N(C)[C@@H](CC(C)C)C(=O)N[C@H](C(=O)N2CCCCC2)CC(=O)N[C@H](C(C)C)C(=O)N(C)[C@@H](Cc2ccccc2)C(=O)N[C@@H](COCC[C@H](C)O)C(=O)N(C)[C@@H](CC(C)C)C(=O)N[C@@H]([C@@H](C)O)C1=O [AP99] ([dV][NMeF]S(Butyl(3S-OH))[NMeL]T[NBuGly][NMeV]S(tBu)[NMeF][NMeL]D-Piperidide; lactam N-11),8.6 nm/s
7,CCCCN1CC(=O)N(C)[C@@H](CC(C)C)C(=O)N[C@H](C(=O)N2CCCCC2)CC(=O)N(C)[C@@H](C)C(=O)N[C@@H](COCC[C@@H](C)O)C(=O)N(C)[C@@H](CC(C)C)C(=O)N(C)[C@@H](Cc2cccc(Cl)c2)C(=O)N[C@@H](CC(C)C)C(=O)N(C)[C@@H](Cc2ccccc2)C(=O)N(C)[C@@H](C(C)C)C(=O)N[C@@H]([C@@H](C)O)C1=O [AP112] ([NMeA]S(Butyl(3R-OH))[NMeL][NMePhe(3-Cl)]L[NMeF][NMeV]T[NBuGly][NMeL]D-Piperidide; lactam N-11),7.3 nm/s
8,CCCCN1CC(=O)N(C)[C@@H](CC(C)C)C(=O)N[C@@H](COCCO)CC(=O)N(C)[C@@H](Cc2ccccc2)C(=O)N(C)[C@@H](CC(C)C)C(=O)N[C@H](C(=O)N2CCCCC2)CC(=O)N[C@H](CC(C)C)C(=O)N(C)[C@@H](CC(C)C)C(=O)N[C@@H](Cc2ccccc2)C(=O)N(C)[C@@H](CC(C)C)C(=O)N[C@@H]([C@@H](C)O)C1=O [AP21] ([dL][NMeL]F[NMeL]T[NBuGly][NMeL][X7][NMeF][NMeL]D-Piperidide; lactam N-11),2.1 nm/s
9,CC[C@H](C)[C@@H]1NC(=O)[C@H](Cc2ccccc2)N(C)C(=O)[C@@H](C)NC(=O)C[C@@H](C(=O)N2CCCCC2)NC(=O)[C@H](CC(C)C)N(C)C(=O)[C@H](C)N(C)C(=O)[C@H](COC(C)(C)C)NC(=O)[C@H](C)N(C)C(=O)CN(C)C(=O)[C@H](Cc2ccc(O)cc2)NC(=O)[C@H](CC(C)C)N(C)C1=O [pd112] ([dA][NMeF]I[NMeL]Y[Sar][NMeA]S(tBu)[NMeA][NMeL]D-Piperidide; lactam N-11),1.1 nm/s
10,"CC[C@H](C)[C@@H]1NC(=O)[C@H](CC(C)C)N(C)C(=O)CCCN(C)C(=O)C[C@@H](C(=O)N2CCCCC2)NC(=O)[C@H](CC(C)C)N(C)C(=O)[C@H](CC(C)C)N(C)C(=O)[C@H]([C@@H](C)O)NC(=O)[C@H](CC(C)C)N(C)C(=O)[C@H](Cc2ccc(OC)c(C(=O)NC)c2)NC(=O)[C@H](CC(C)C)N(C)C(=O)[C@H](Cc2ccccc2)N(C)C1=O [AP38] ([NMeGABA][NMeL]I[NMeF][NMeL][Phe(3-CONHMe,4-OMe)][NMeL]T[NMeL][NMeL]D-Piperidide; lactam N-11)",2 nm/s
11,CC[C@H](C)[C@@H]1NC(=O)[C@H](CC(C)C)N(C)C(=O)CCCN(C)C(=O)C[C@@H](C(=O)N2CCCCC2)NC(=O)[C@H](CC(C)C)N(C)C(=O)[C@H](C)N(C)C(=O)[C@H](Cc2ccc(O)cc2)NC(=O)[C@H](CC(C)C)N(C)C(=O)[C@H](COC(C)(C)C)NC(=O)[C@H](CC(C)C)N(C)C(=O)[C@H](Cc2ccccc2)N(C)C1=O [pd129] ([NMeGABA][NMeL]I[NMeF][NMeL]S(tBu)[NMeL]Y[NMeA][NMeL]D-Piperidide; lactam N-11),1.6 nm/s
12,CC(C)C[C@@H]1NC(=O)[C@H](CC(C)C)N(C)C(=O)C[C@@H](C(=O)N2CCCCC2)NC(=O)[C@H](CC(C)C)N(C)C(=O)CN(C)C(=O)[C@H]([C@@H](C)O)NC(=O)[C@H](CC(C)C)N(C)C(=O)[C@H](Cc2ccccc2)N(C)C(=O)[C@H](COCCCO)NC(=O)[C@H](Cc2ccccc2)N(C)C(=O)[C@H](CC(C)C)N(C)C1=O [AP94] ([NMeL]L[NMeL][NMeF]S(Propyl(3-OH))[NMeF][NMeL]T[Sar][NMeL]D-Piperidide; lactam N-11),3.5 nm/s
13,"COc1cc(C[C@@H]2NC(=O)[C@H](CC(C)C)N(C)C(=O)[C@H](COC(C)(C)C)NC(=O)[C@H](Cc3ccccc3)N(C)C(=O)[C@H](CC(C)C)N(C)C(=O)[C@H](C)NC(=O)[C@H](CC(C)C)N(C)C(=O)CCCN(C)C(=O)C[C@@H](C(=O)N3CCCCC3)NC(=O)[C@H](CC(C)C)N(C)C(=O)[C@H](CC(C)C)N(C)C2=O)ccc1C(=O)NS(C)(=O)=O [AP141] ([NMeGABA][NMeL]A[NMeL][NMeF]S(tBu)[NMeL][Phe(3-OMe,4-CONHMs)][NMeL][NMeL]D-Piperidide; lactam N-11)",< 2.7 nm/s
14,"CC(C)C[C@@H]1NC(=O)[C@H](C)N(C)C(=O)C[C@@H](C(=O)N2CCCCC2)NC(=O)[C@H](CC(C)C)N(C)C(=O)CN(C)C(=O)[C@H]([C@@H](C)O)NC(=O)[C@H](CC(C)C)N(C)C(=O)[C@H](CCc2ccccc2)N(C)C(=O)[C@H](COCCC(C)(C)O)NC(=O)[C@H](Cc2ccccc2)N(C)C(=O)[C@H](CC(C)C)N(C)C1=O [AP56] ([NMeA]L[NMeL][NMeF]S(Butyl(3-Me,3-OH))[NMehPhe][NMeL]T[Sar][NMeL]D-Piperidide; lactam N-11)",13 nm/s
15,"CC[C@H](C)[C@@H]1NC(=O)[C@H](Cc2ccccc2)N(C)C(=O)CN(C)C(=O)C[C@@H](C(=O)N2CCCCC2)NC(=O)[C@H](CC(C)C)N(C)C(=O)[C@H](COCCC(C)(C)O)NC(=O)[C@H](CC(C)C)N(C)C(=O)[C@H](CCc2ccccc2)N(C)C(=O)CN(C)C(=O)[C@H]([C@@H](C)O)NC(=O)[C@H](CC(C)C)N(C)C1=O [AP58] ([Sar][NMeF]I[NMeL]T[Sar][NMehPhe][NMeL]S(Butyl(3-Me,3-OH))[NMeL]D-Piperidide; lactam N-11)",4.9 nm/s

# Same assay, conditions: human, Caco-2, Caco-2 (cm/sec) Papp
row,SMILES,Papp
1,CC[C@H](C)[C@@H]1NC(=O)[C@H](Cc2ccccc2)N(C)C(=O)[C@H](C)N(C)C(=O)C[C@@H](C(=O)N(C)[C@@H](Cc2ccccc2)C(=O)N(C)[C@@H](Cc2ccccc2)C(=O)N[C@@H](C)C(=O)N2CCCCC2)NC(=O)[C@H](CC(C)C)N(C)C(=O)[C@H](Cc2ccccc2)N(C)C(=O)[C@H]([C@@H](C)O)NC(=O)[C@H](CC(C)C)N(C)C(=O)[C@H](CC(C)C)N(C)C(=O)[C@H](C)N(C)C1=O [pd240] ([NMeA][NMeF]I[NMeA][NMeL][NMeL]T[NMeF][NMeL]D[NMeF][NMeF]A-Piperidide; lactam N-10),0.6 nm/s
